Experimental data as given in patent US10543208B2, “Treatment of gliomas using organonitro compound combination therapy” (priority 2015, dated 2020).

System: temozolomide-resistant EGFRvIII/Arfko GBM (NSCG) cells
Experiment: Survival of mice after intracranial injection of NSCG tumors
Assay type: in vivo, FVBN mice
Settings: ABDNAZ 10 mg/kg intraperitoneal, temozolomide 40 mg/kg oral gavage
Method: Mice implanted with temozolomide-resistant EGFRvIII/Arfko GBM (NSCG) cells were treated with (i) ABDNAZ (RRx-001, 10 mg/kg, intraperitoneal injection), (ii) temozolomide (TMZ)(40 mg/kg, oral gavage), or (iii) ABDNAZ (10 mg/kg, intraperitoneal injection) and temozolomide (40 mg/kg, oral gavage).
NSCG tumors were intracranially injected into FVBN mice. Mice to be treated were treated with one of the following (i) ABDNAZ (10 mg/kg, intraperitoneal injection), (ii) temozolomide (40 mg/kg, oral gavage), or (iii) ABDNAZ (10 mg/kg, intraperitoneal injection) and temozolomide (40 mg/kg, oral gavage). In a first experiment, treatment (i.e., administration of ABDNAZ (RRx-001), temozolomide (TMZ), or both ABDNAZ and temozolomide) was started five days after intracranial injection of NSCG cells. The control population of mice contained ten mice, the group receiving only ABDNAZ had twelve mice, the group receiving only temozolomide had twelve mice, and the group receiving both ABDNAZ and temozolomide had sixteen mice. Mouse survival was monitored over time.
In a second experiment, treatment (i.e., administration of ABDNAZ (RRx-001), temozolomide (TMZ), or both ABDNAZ and temozolomide) was started ten days after intracranial injection of NSCG cells. The control population of mice contained three mice, the group receiving only ABDNAZ had five mice, the group receiving only temozolomide had four mice, and the group receiving both ABDNAZ and temozolomide had six mice. Mouse survival was monitored over time.

[1] = treatment started five days after intracranial injection of NSCG cells, control 22.2
[2] = treatment started ten days after intracranial injection of NSCG cells, control 22.1

Compound	Median Survival Time [1]	Median Survival Time [2]
O=C(CBr)N1CC([N+](=O)[O-])([N+](=O)[O-])C1 [ABDNAZ]	25.3 days	22.5 days
Cn1nnc2c(C(N)=O)ncn2c1=O [TMZ, 3,4-dihydro-3-methyl-4-oxoimidazo[5,1-d]-as-tetrazine-8-carboxamide]	22.3 days	22.3 days
